Patent US8962036B2, “Disintegrable formulations of lanthanum carbonate” (Mylan Pharmaceuticals Inc., priority 2009, dated 2015)

What was measured:
[1] = Phosphate Binding Assay (excess phosphate, pH 3.0, 37° C., ion chromatography); settings: 2.5 mg La2(CO3)3/mL phosphate solution, 60 minutes; for Binding Capacity, Ground Tablet: whole tablet coarsely ground before analysis; for Binding Capacity, Whole Tablet: whole tablet without further modification
Excerpt: Table II describes the phosphate binding ability of the prepared Examples in either whole or ground tablet form. The ground tablets simulate a chewable tablet formulation after chewing has occurred. Phosphate binding ability is a term used to predict the amount of phosphate that can be bound by a sequestrant under conditions which employ a large excess of phosphate, such as those found in the stomach. Mazzeo, J. R.; et. al. Journal of Pharmaceutical and Biomedical Analysis 1999, vol. 19, pps. 911-915. This assay, which utilizes a large excess of phosphate, is therefore a better functional model of biological conditions than the assay described in U.S. Pat. No. 5,968,976 which utilizes only two molar equivalents of phosphate ion per mole of lanthanum carbonate.
The uncoated, compressed tablets obtained from Examples 1-17 were assessed for phosphate binding ability. Whole tablets, prepared as described above, as well as coarsely ground tablets were both examined.
i. Preparation of stock phosphate solution:
21.4 g N,N-bis(hydroxyethyl)-2-aminoethanesulfonic acid, 4.7 g NaCl, and 2.7 g KH2PO4 (ultra high purity) were added to a 1000 mL volumetric flask and dissolved in 950 mL DI H2O. The pH was then adjusted to 3.0 (±0.05) with HCl, and the solution was diluted to volume with DI H2O and mixed.
The lanthanum carbonate complex was added to the stock phosphate solution so that the final concentration was 2.5 mg La2(CO3)3/mL phosphate solution. The mixture was heated at 37° C. for 60 minutes with constant swirling. It was then filtered through a 0.2 μm nylon filter.
The sample was then diluted to allow injection into the ion chromatograph. Here, a dilution factor of 100 was used: a 1.0 mL aliquot was removed and diluted volumetrically to 100 mL with DI water.
iii. Phosphate Measurement
The amount of unbound phosphate was determined by ion chromatography on a Dionex ICS-1500 ion chromatograph equipped with a conductivity cell (35° C.) and a Dionex MRS 300 4 mm auto suppressor. Material was eluted through a Dionex AG11-HC guard column (4×50 mm) and a Dionex AS11-HC column (4×250 mm) at 1.0 mL/min using 25 mM NaOH in DI H2O as the mobile phase. The sample response was then recorded by a computerized chromatography data system.
iv. Construction of Phosphate Calibration Curve
The linearity of the response was verified as follows. A series of standards over a wide range of free phosphate concentration (approximately 0.04, 0.06, 0.10, 0.15, 0.20, and 0.25 mM) were prepared and their ion chromatographic responses were determined. A plot of free phosphate concentration (mM) vs. response was then constructed. The slope and y-intercept of the resulting linear regression plot were then determined.
The phosphate binding capacity was calculated from the following equations.

[2] = Disintegration of uncoated, compressed tablets in deionized water (USP <701>); assay type: physicochemical; settings: whole, intact tablet in deionized water; single tablet per example
Protocol: The uncoated, compressed tablets were assessed for disintegration. The disintegration time was measured using the procedure and apparatus as described by physical test <701>, Disintegration, from The United States Pharmacopeia, Volume 29. The disintegration of a single tablet from each example was measured.

| Compound | Binding Capacity, Ground Tablet [1] | Binding Capacity, Whole Tablet [1] | Disintegration Time [2] [h] |
| --- | --- | --- | --- |
| O=C([O-])[O-].O=C([O-])[O-].O=C([O-])[O-].[La+3].[La+3] [Example 14, La2(CO3)3•5H20] | 3.0 mmol PO4-2/g La2(CO3)3 | 0.7 mmol PO4-2/g La2(CO3)3 | 5 |
| O.O.O.O.O.O.O.O.O=C([O-])[O-].O=C([O-])[O-].O=C([O-])[O-].[La+3].[La+3] [Example 15, La2(CO3)3•8H20] | 3.0 mmol PO4-2/g La2(CO3)3 | 0.6 mmol PO4-2/g La2(CO3)3 | >7 |
| O.O.O.O.O.O.O.O.O.O.O.O.O.O.O=C([O-])[O-].O=C([O-])[O-].O=C([O-])[O-].[La+3].[La+3] [Example 16, La2(CO3)3•14H20] | 3.6 mmol PO4-2/g La2(CO3)3 | 0.8 mmol PO4-2/g La2(CO3)3 | >7 |
